Source: patent publication US10184137B2, “Method of producing isoprene monomer” (AJINOMOTO CO., INC., priority 2014, dated 2019)
Counter-ions that a name gives are not always drawn.

Columns and labels:
[1] = HPLC verification of prepared potassium mevalonate after frozen storage; conditions: HPLC peak area versus lithium mevalonate standard; stored at −20° C.
Experimental: The mixed solution was then incubated at 37° C. for 2 hours. After incubation, pH of the solution was adjusted to 8.0 by neutralization with hydrochloric acid.
HPLC used for the verification was HITACH High-Performance Liquid Chromatography (L-2000). HPLC was performed by using YMC-Pack ODS-A (150×4.6 mm I.D.: YMC CO., LTD.) as stationary phase and phosphoric acid (pH2.5) as mobile phase. Detection was performed at 210 nm.

[2] = biological target: T1, Methanosarcina mazei mevalonate kinase (mma), wild type, SEQ ID NO:12, N-terminal His-tag (Methanosarcina mazei, UniProt Q8PW39); assay: Inhibition of mma-derived mevalonate kinase by DMAPP, GPP, FPP or DPM; assay type: biochemical
T1 sequence (Q8PW39 1-301): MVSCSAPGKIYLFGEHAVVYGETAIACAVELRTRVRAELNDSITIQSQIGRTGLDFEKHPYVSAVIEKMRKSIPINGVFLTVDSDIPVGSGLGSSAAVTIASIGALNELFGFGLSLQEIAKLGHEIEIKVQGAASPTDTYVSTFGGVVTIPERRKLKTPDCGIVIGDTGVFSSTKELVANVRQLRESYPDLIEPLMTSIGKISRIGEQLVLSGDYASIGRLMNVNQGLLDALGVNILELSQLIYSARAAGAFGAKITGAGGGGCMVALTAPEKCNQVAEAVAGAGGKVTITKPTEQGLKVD
Experimental: (§1) Km value was calculated by Lineweaver-Burk plot.
(§2) Since GPP and FPP solutions contain methanol, methanol which was needed to keep the same methanol level at the addition to the reaction system was added to the reaction solution, which was designated as control.
(§3) Effect of 1 mM diphosphomevalonate (DPM) on each enzyme was also studied.

[3] = biological target: T2, Nitrosopumilus maritimus mevalonate kinase (nmr), wild type, SEQ ID NO:9, N-terminal His-tag (Nitrosopumilus maritimus, UniProt A9A427); assay: Examination of product inhibition on nmr-derived mevalonate kinase; assay type: biochemical; conditions: reaction on 1 mM mevalonate
T2 sequence (A9A427 1-313): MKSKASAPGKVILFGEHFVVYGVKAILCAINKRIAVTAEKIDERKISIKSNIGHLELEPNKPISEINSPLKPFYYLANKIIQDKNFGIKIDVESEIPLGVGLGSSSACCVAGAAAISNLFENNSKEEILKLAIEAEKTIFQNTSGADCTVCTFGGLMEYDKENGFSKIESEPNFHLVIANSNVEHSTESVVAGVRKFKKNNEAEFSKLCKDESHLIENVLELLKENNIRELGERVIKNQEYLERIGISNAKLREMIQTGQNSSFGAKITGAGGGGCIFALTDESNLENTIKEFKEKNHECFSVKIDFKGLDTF

[4] = biological target: T2, Nitrosopumilus maritimus mevalonate kinase (nmr), wild type, SEQ ID NO:9, N-terminal His-tag; assay: Inhibition of nmr-derived mevalonate kinase by DMAPP, GPP, FPP or DPM; assay type: biochemical; conditions: 1 mM DPM, control 0.2064
Experimental: as §1, §2, §3

[5] = biological target: T3, Methanosaeta concilii mevalonate kinase (mcl), wild type, SEQ ID NO:6, N-terminal His-tag (Methanothrix soehngenii, UniProt F4BZB3); assay: Inhibition of mcl-derived mevalonate kinase by DMAPP, GPP, FPP or DPM; assay type: biochemical; conditions: mcl; 1 mM DPM; control 0.1373
T3 sequence (F4BZB3 1-317): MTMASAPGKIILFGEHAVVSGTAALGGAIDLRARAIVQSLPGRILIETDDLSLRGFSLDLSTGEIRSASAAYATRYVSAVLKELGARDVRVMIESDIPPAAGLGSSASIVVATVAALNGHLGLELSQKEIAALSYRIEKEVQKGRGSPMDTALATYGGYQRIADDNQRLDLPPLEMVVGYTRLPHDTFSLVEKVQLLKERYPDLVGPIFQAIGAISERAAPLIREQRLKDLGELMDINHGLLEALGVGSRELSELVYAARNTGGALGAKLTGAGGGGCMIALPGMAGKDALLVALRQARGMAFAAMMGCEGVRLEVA
Experimental: as §1, §2, §3

[6] = biological target: T4, Saccharomyces cerevisiae mevalonate kinase (sce, ERG12), wild type, NP_013935.1, N-terminal His-tag (Saccharomyces cerevisiae, UniProt P07277); assay: Inhibition of sce-derived mevalonate kinase by DMAPP, GPP, FPP or DPM; assay type: biochemical; conditions: control 0.1028
T4 construct: His-tag (N); made in house; host or cells: E. coli BL21(DE3)
T4 sequence (P07277 1-443): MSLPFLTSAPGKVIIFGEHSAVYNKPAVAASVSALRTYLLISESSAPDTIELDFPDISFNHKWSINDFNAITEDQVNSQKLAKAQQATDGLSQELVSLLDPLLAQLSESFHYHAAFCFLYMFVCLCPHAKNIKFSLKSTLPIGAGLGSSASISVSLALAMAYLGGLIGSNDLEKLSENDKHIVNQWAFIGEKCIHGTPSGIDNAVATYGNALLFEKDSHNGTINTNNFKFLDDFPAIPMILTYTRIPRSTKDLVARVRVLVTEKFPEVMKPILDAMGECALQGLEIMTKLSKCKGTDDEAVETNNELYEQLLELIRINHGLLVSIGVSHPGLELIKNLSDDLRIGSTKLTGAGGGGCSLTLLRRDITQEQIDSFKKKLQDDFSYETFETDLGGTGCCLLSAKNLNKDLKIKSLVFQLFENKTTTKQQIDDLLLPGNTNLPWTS
Experimental: as §1, §2, §3

[7] = biological target: T5, Methanocella paludicola mevalonate kinase (mpd), wild type, SEQ ID NO:1, N-terminal His-tag (Methanocella paludicola, UniProt D1YZ39); assay: Inhibition of mpd-derived mevalonate kinase by DMAPP, GPP, FPP or DPM; assay type: biochemical; conditions: 1 mM DPM, control 0.148
T5 sequence (D1YZ39 entry or part of it): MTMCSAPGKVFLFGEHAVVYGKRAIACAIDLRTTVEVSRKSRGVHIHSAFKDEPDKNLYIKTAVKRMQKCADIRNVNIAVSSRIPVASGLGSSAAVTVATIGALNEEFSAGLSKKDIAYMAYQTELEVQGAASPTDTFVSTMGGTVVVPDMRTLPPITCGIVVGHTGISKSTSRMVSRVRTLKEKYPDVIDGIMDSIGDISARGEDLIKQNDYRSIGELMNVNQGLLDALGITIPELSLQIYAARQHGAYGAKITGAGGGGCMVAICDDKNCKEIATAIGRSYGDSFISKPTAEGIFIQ
Experimental: as §1, §2, §3

[8] = biological target: Corynebacterium variabile mevalonate kinase (cva), wild type, SEQ ID NO:3, N-terminal His-tag (Corynebacterium variabile, UniProt A0A0X2NLH5); assay: Inhibition of cva-derived mevalonate kinase by DMAPP, GPP, FPP or DPM; assay type: biochemical; conditions: 1 mM DPM, control 0.073275
Sequence of Corynebacterium variabile mevalonate kinase (cva), wild type, SEQ ID NO:3, N-terminal His-tag (A0A0X2NLH5 entry or part of it): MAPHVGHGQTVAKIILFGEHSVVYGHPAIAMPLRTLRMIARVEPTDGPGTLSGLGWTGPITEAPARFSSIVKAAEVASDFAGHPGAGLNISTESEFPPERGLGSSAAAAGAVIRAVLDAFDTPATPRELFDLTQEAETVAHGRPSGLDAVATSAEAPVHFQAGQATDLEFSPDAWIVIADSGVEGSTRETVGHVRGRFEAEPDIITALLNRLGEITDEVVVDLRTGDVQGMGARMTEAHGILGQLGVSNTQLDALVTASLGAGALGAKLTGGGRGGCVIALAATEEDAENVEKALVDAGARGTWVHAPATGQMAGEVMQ
Experimental: as §1, §2, §3

[9] = biological target: T3, Methanosaeta concilii mevalonate kinase (mcl), wild type, SEQ ID NO:6, N-terminal His-tag; assay: Km and kcat of mevalonate kinase (mcl-derived); conditions: compared with the other enzymes
Experimental: (§4) Each obtained plasmid was used for transformation of E. coli BL21(DE3). […] When OD600 reached approximately 0.5, 0.1 mM IPTG (for cva, mma, nmr, and sce) or 1 mM (for mcl and mpd) of IPTG was added, and then the mixture was kept at 20° C. overnight to induce the target protein. […] After centrifugation (28,000×g, 30 min), the supernatant was adsorbed onto His-Trap HP (GE Healthcare) to elute the target protein by linear concentration gradient of Imidazol (final concentration 0.5 M). Obtained protein was dialyzed by using an external solution composed of 20 mM Tris-HCl (pH 8.0) containing 1 mM DTT and 50 mM NaCl. Dialyzed protein was designated as purified enzyme. Protein quantity was measured with Bio-RAD protein assay kit and BSA standard condition.
(§5) Decrease in absorbance at 340 nm at 30° C. was measured to determine the enzyme activity. JASCO Corporation's spectrophotometer (V-650) was used in this study. […] Km value was calculated by Lineweaver-Burk plot.

[10] = biological target: T5, Methanocella paludicola mevalonate kinase (mpd), wild type, SEQ ID NO:1, N-terminal His-tag; assay: Km and kcat of mevalonate kinase (mpd-derived); conditions: compared with the other enzymes
Experimental: as §4, §5

C[C@@](O)(CCO)CC(=O)[O-].[K+] [potassium mevalonate]
stability after frozen storage [1]: stable

CC(O)(CCOP(=O)(O)OP(=O)(O)O)CC(=O)O (racemic) [DPM, (±)-mevalonic acid 5-diphosphate tetralithium salt]
Enzyme activity with 1 mM DPM ([2]; 1 mM DPM, control 0.1604): 0.1368 dABS/min | Inhibition by DPM ([2]; 1 mM diphosphomevalonate): Slight inhibitory activity | DPM-induced inhibition [3]: inhibition is not observed | Enzyme activity with 1 mM DPM [4]: 0.2 dABS/min | Enzyme activity with 1 mM DPM [5]: 0.1353 dABS/min | Enzyme activity with 1 mM DPM [6]: 0.0984 dABS/min | Enzyme activity with 1 mM DPM [7]: 0.156 dABS/min | Enzyme activity with 1 mM DPM [8]: 0.07555 dABS/min

Nc1ncnc2c1ncn2[C@@H]1O[C@H](COP(=O)(O)OP(=O)(O)OP(=O)(O)O)[C@@H](O)[C@H]1O [ATP]
Affinity [9]: higher affinity | Affinity [10]: higher affinity
